Assay results reported in ChEMBL document CHEMBL4304832, “Novel Pyrazole-Containing Compounds Active against Mycobacterium tuberculosis” (ACS Med Chem Lett, 2019).
Activity calls are given as the source filed them. The calls are words filed in the database; no cut-off is given here.

How the values were obtained:
Type in all cases: functional, organism-based
[1] = system: Mycobacterium tuberculosis; assay: Antitubercular activity against Mycobacterium tuberculosis H37Rv harboring mmpL3 V240A mutant at 12.5 uM incubated for 4 weeks by resazurin dye based fluorescence assay
[2] = system: Mycobacterium tuberculosis; assay: Antitubercular activity against Mycobacterium tuberculosis H37Rv harboring ppsB L1476S mutant at 12.5 uM incubated for 4 weeks by resazurin dye based fluorescence assay
[3] = system: Mycobacterium tuberculosis; assay: Antitubercular activity against Mycobacterium tuberculosis H37Rv harboring lprM V86V mutant at 25 uM incubated for 4 weeks by resazurin dye based fluorescence assay
[4] = system: Mycobacterium tuberculosis; assay: Antitubercular activity against Mycobacterium tuberculosis H37Rv harboring fadD26 (336 amino acids) insertion mutant at 20 uM incubated for 4 weeks by resazurin dye based fluorescence assay
[5] = system: Mycobacterium tuberculosis; assay: Antitubercular activity against Mycobacterium tuberculosis H37Rv harboring mmpL3 P239H mutant at 20 uM incubated for 4 weeks by resazurin dye based fluorescence assay

| Structure (SMILES) | Activity [1] | Activity [2] | Activity [3] | Activity [4] | Activity [5] |
| --- | --- | --- | --- | --- | --- |
| COC1CCN(Cc2cc(-c3ccc(C(C)C)cc3)n(-c3ccc(F)cc3)n2)CC1 | Active | Active | – | – | – |
| CC(C)c1ccc(-c2cc(CN3CCN(c4ccccn4)CC3)nn2C2CCCCC2)cc1 | – | – | Active | Active | Active |
